Values joined by “and” are separate entries in the source; they are usually repeats but may differ in a detail not shown here. Equal entries are not always repeated. Inconclusive results and toxic doses are left out. Cut-off read from the data, not from the text of the source: active = T/C of 150% or more; inactive = T/C below 125%.
Tested on: L1210 leukemia ip in BDF1 mice, survival T/C
Test: NCI In Vivo Anticancer Drug Screen. Data for tumor model L1210 Leukemia (intraperitoneal) in B6D2F1 (BDF1) mice
Settings: endpoint: mean survival time, higher = longer survival
Summary of the method: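 In this screen, tumor-bearing mice given compound are compared to those given vehicle, and their survival values are reported as a treated-to-control quotient.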

[1] = dose: 100.0 mg/kg/injection, schedule: Q04DX002 (ip), vehicle: Klucel (hydroxypropylcellulose) (HPC)
[2] = dose: 200.0 mg/kg/injection, schedule: Q04DX002 (ip), vehicle: Klucel (hydroxypropylcellulose) (HPC)
[3] = dose: 100.0 mg/kg/injection, schedule: Q01DX001 (ip), vehicle: carboxymethylcellulose (CMC)
[4] = dose: 400.0 mg/kg/injection, schedule: Q01DX001 (ip), vehicle: carboxymethylcellulose (CMC)
[5] = dose: 100.0 mg/kg/injection, schedule: Q01DX009 (ip), vehicle: saline with Tween-80
[6] = dose: 100.0 mg/kg/injection, schedule: Q04DX003 (ip), vehicle: Klucel (hydroxypropylcellulose) (HPC)
[7] = dose: 200.0 mg/kg/injection, schedule: Q04DX003 (ip), vehicle: Klucel (hydroxypropylcellulose) (HPC)
[8] = dose: 400.0 mg/kg/injection, schedule: Q04DX003 (ip), vehicle: Klucel (hydroxypropylcellulose) (HPC)
[9] = dose: 200.0 mg/kg/injection, schedule: Q01DX001 (ip), vehicle: carboxymethylcellulose (CMC)

Measured: T/C

CN1C(c2ccccc2)=CN(Cc2ccccc2)C=C1c1ccccc1
inactive: dose: 50.0 mg/kg/injection, schedule: Q04DX002 (ip), vehicle: Klucel (hydroxypropylcellulose) (HPC) 103 % of control | [1] 100 % of control | [2] 97 % of control

CC(=O)[C@@]12OC(C)(C)O[C@@H]1C[C@H]1[C@@H]3C[C@H](C)C4=CC(=O)CC[C@]4(C)[C@H]3CC[C@@]12C
inactive: dose: 100.0 mg/kg/injection, schedule: Q01DX001 (ip), vehicle: steriod suspending solution 103 % of control | dose: 100.0 mg/kg/injection, schedule: Q04DX003 (ip), vehicle: steriod suspending solution 100 % of control | dose: 200.0 mg/kg/injection, schedule: Q01DX001 (ip), vehicle: steriod suspending solution 98 % of control | dose: 200.0 mg/kg/injection, schedule: Q04DX003 (ip), vehicle: steriod suspending solution 98 % of control | dose: 400.0 mg/kg/injection, schedule: Q01DX001 (ip), vehicle: steriod suspending solution 97 % of control | dose: 400.0 mg/kg/injection, schedule: Q04DX003 (ip), vehicle: steriod suspending solution 97 % of control

CC1CN=C(c2ccc(NC(=O)c3ccc(C(=O)Nc4ccc(C5=NCC(C)N5)cc4)c(N)c3)cc2)N1 (stereo unspecified)
inactive: dose: 15.0 mg/kg/injection, schedule: Q01DX Z (ip), vehicle: saline 92 % of control | dose: 30.0 mg/kg/injection, schedule: Q01DX Z (ip), vehicle: saline 86 % of control | dose: 62.5 mg/kg/injection, schedule: Q01DX010 (oral), vehicle: saline 100 % of control | dose: 125.0 mg/kg/injection, schedule: Q01DX010 (oral), vehicle: saline 100 % of control | dose: 250.0 mg/kg/injection, schedule: Q01DX010 (oral), vehicle: saline 101 % of control | dose: 500.0 mg/kg/injection, schedule: Q01DX010 (oral), vehicle: saline 105 % of control

Nc1nc(N)c(N=Cc2ccc(N(CCCl)CCCl)cc2)c(N)n1
inactive: dose: 50.0 mg/kg/injection, schedule: Q01DX001 (ip), vehicle: saline 100 % of control | [3] 103 % of control | dose: 200.0 mg/kg/injection, schedule: Q01DX001 (ip), vehicle: saline 103 % of control | [4] 100 % of control

O=c1[nH]c2cc(Cl)ccc2c(CCl)c1Cl
inactive: dose: 25.0 mg/kg/injection, schedule: Q01DX009 (ip), vehicle: saline with Tween-80 92 % of control | dose: 50.0 mg/kg/injection, schedule: Q01DX009 (ip), vehicle: saline with Tween-80 94 % of control | [5] 89 % of control | dose: 100.0 mg/kg/injection, schedule: Q04DX003 (ip), vehicle: acetone 100 % of control

c1ccc(COC2CN3CCC2CC3)cc1 (stereo unspecified)
inactive: dose: 25.0 mg/kg/injection, schedule: Q04DX003 (ip), vehicle: saline with Tween-80 91 % of control | dose: 50.0 mg/kg/injection, schedule: Q04DX003 (ip), vehicle: saline with Tween-80 95 % of control | dose: 100.0 mg/kg/injection, schedule: Q04DX003 (ip), vehicle: saline with Tween-80 90 % of control and 91 % of control

O=[N+]([O-])c1cc([N+](=O)[O-])c2nc3ccccn3c2c1
inactive: [5] 96 % of control | dose: 200.0 mg/kg/injection, schedule: Q01DX009 (ip), vehicle: saline with Tween-80 102 % of control | dose: 400.0 mg/kg/injection, schedule: Q01DX009 (ip), vehicle: saline with Tween-80 107 % of control

C/C(=N\Nc1ccc([N+](=O)[O-])cc1[N+](=O)[O-])C(F)(F)F
inactive: dose: 100.0 mg/kg/injection, schedule: Q01DX009 (ip), vehicle: saline sonified 95 % of control | [6] 94 % of control | dose: 200.0 mg/kg/injection, schedule: Q01DX009 (ip), vehicle: saline sonified 98 % of control | [7] 104 % of control | dose: 400.0 mg/kg/injection, schedule: Q01DX009 (ip), vehicle: saline sonified 95 % of control | [8] 104 % of control

COC1OCC(OCc2ccccc2)C(OCc2ccccc2)C1OCc1ccccc1 (stereo unspecified)
inactive: [3] 118 % of control | [9] 98 % of control | [4] 96 % of control

Cn1c(=O)n(O)c(=O)c2ccccc21
inactive: dose: 50.0 mg/kg/injection, schedule: Q01DX001 (ip), vehicle: saline with Tween-80 96 % of control | dose: 100.0 mg/kg/injection, schedule: Q01DX001 (ip), vehicle: saline with Tween-80 109 % of control | dose: 200.0 mg/kg/injection, schedule: Q01DX001 (ip), vehicle: saline with Tween-80 91 % of control

COc1ccccc1/C=C(/C)C(C)=O
inactive: dose: 75.0 mg/kg/injection, schedule: Q04DX003 (ip), vehicle: Klucel (hydroxypropylcellulose) (HPC) 102 % of control | [3] 103 % of control | dose: 150.0 mg/kg/injection, schedule: Q04DX003 (ip), vehicle: Klucel (hydroxypropylcellulose) (HPC) 97 % of control | [9] 108 % of control | dose: 300.0 mg/kg/injection, schedule: Q04DX003 (ip), vehicle: Klucel (hydroxypropylcellulose) (HPC) 94 % of control | [4] 97 % of control

O=CN(c1ccccc1)c1ccccc1
inactive: dose: 100.0 mg/kg/injection, schedule: Q01DX009 (ip), vehicle: other 109 % of control | dose: 100.0 mg/kg/injection, schedule: Q04DX003 (ip), vehicle: saline 100 % of control | dose: 200.0 mg/kg/injection, schedule: Q01DX009 (ip), vehicle: other 106 % of control | dose: 200.0 mg/kg/injection, schedule: Q04DX003 (ip), vehicle: saline 102 % of control | dose: 400.0 mg/kg/injection, schedule: Q01DX009 (ip), vehicle: other 106 % of control | dose: 400.0 mg/kg/injection, schedule: Q04DX003 (ip), vehicle: saline 109 % of control

O=[N+]([O-])c1cc(Br)cc2c1nc(NCCCO)c1ccccc12
inactive: [6] 103 % of control | [7] 109 % of control | [8] 109 % of control

O=C(Cc1ccccc1)Cc1ccccc1
inactive: dose: 25.0 mg/kg/injection, schedule: Q01DX009 (ip), vehicle: water 104 % of control | dose: 50.0 mg/kg/injection, schedule: Q01DX009 (ip), vehicle: water 115 % of control | dose: 100.0 mg/kg/injection, schedule: Q01DX009 (ip), vehicle: water 104 % of control | dose: 200.0 mg/kg/injection, schedule: Q01DX009 (ip), vehicle: water 94 % of control | dose: 400.0 mg/kg/injection, schedule: Q01DX009 (ip), vehicle: water 94 % of control

CCCCCCCCCCCCCCCCCC(=O)N/N=C/C(=C\c1ccccc1)CCCCCC
inactive: dose: 100.0 mg/kg/injection, schedule: Q01DX009 (ip), vehicle: Klucel (hydroxypropylcellulose) (HPC) 90 % of control | dose: 200.0 mg/kg/injection, schedule: Q01DX009 (ip), vehicle: Klucel (hydroxypropylcellulose) (HPC) 98 % of control | dose: 400.0 mg/kg/injection, schedule: Q01DX009 (ip), vehicle: Klucel (hydroxypropylcellulose) (HPC) 93 % of control

CN(C)C(=N)CSS(=O)(=O)O
inactive: [1] 90 % of control | [2] 101 % of control

Reference: PubChem BioAssay AID248 (DTP/NCI, 2004)
